Calls of active or inactive are those of the source. The calls are words filed in the database; no cut-off is given here.

The target of experiment [1] is T1, Leukotriene A-4 hydrolase (Homo sapiens, UniProt P09960).
T1 sequence (P09960 whole entry): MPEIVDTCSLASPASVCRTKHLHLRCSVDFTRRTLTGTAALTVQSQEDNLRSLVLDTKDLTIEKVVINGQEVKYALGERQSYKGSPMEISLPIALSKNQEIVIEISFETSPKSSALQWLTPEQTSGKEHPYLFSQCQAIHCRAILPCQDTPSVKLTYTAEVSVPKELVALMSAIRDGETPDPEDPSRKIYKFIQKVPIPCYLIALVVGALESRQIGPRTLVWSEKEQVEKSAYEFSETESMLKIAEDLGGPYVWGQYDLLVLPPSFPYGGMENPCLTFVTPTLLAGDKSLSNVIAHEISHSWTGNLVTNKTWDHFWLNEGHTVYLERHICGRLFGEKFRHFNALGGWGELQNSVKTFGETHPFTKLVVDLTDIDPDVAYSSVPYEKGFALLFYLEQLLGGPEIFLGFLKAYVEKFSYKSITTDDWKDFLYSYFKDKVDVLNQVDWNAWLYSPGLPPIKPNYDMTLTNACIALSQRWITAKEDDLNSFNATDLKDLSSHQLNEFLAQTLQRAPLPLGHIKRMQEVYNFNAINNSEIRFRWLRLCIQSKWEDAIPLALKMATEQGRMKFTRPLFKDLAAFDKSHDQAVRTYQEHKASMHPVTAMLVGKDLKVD
Briefly: Activation of N-terminal (His)6 and Xpress-tagged LTA4H (unknown origin) expressed in Escherichia coli BL21(DE3) cells assessed as increase in aminopeptidase activity by measuring p-nitroanilide release using L-Alanine-p-nitroanilide incubated for 10 mins by UV plate reader based assay.

For experiment [2], the target named is T2, Leukotriene A-4 hydrolase (Homo sapiens) (UniProt P09960).
T2 sequence (whole entry): T1 sequence (P09960 whole entry)
Kind of experiment: Activation of N-terminal (His)6 and Xpress-tagged LTA4H (unknown origin) expressed in Escherichia coli BL21(DE3) cells assessed as increase in aminopeptidase activity by measuring dissociation constant (KX) for hyperbolic mixed predominantly catalytic activation using L-Alanine-p-nitroanilide incubated for 10 mins by p-nitroanilide release detection based UV plate reader based assay.

The target in experiment [3] is T2, Leukotriene A-4 hydrolase (Homo sapiens). Kind of experiment: Activation of N-terminal (His)6 and Xpress-tagged LTA4H (unknown origin) expressed in Escherichia coli BL21(DE3) cells assessed as increase in aminopeptidase activity by measuring factor by which activator affects catalytic constant for hyperbolic mixed predominantly catalytic activation using L-Alanine-p-nitroanilide incubated for 10 mins by p-nitroanilide release detection based UV plate reader based assay.

The target is the same in experiment [4]. Kind of experiment: Activation of N-terminal (His)6 and Xpress-tagged LTA4H (unknown origin) expressed in Escherichia coli BL21(DE3) cells assessed as increase in aminopeptidase activity by measuring reciprocal allosteric coupling constant for hyperbolic mixed predominantly catalytic activation using L-Alanine-p-nitroanilide incubated for 10 mins by p-nitroanilide release detection based UV plate reader based assay.

In experiment [5] the target is T1, Leukotriene A-4 hydrolase. Briefly: Inhibition of N-terminal (His)6 and Xpress-tagged LTA4H (unknown origin) expressed in Escherichia coli BL21(DE3) cells assessed as reduction in aminopeptidase activity by measuring p-nitroanilide release using L-Alanine-p-nitroanilide incubated for 10 mins by UV plate reader based assay.
Another experiment relates to Neutrophil. Kind of experiment: Inhibition of LTB4 production in A23187-stimulated human neutrophils at 0.001 to 1000 microM incubated for 30 mins by ELISA. The class given is functional, cell-based.

As for `Nc1nc(-c2ccc(Cc3cccc(C(F)(F)F)c3)cc2)cs1`, the AC50 in experiment [1] worked out at 69 µM.

In the case of `Nc1nc(-c2ccc(Cc3ccccc3)cc2)cs1`, the values for the K in experiment [2] and in experiment [4] were 1.35 µM and 0.82, respectively. Further, the fold change (FC) in experiment [3] stood at 25.4. The AC50 in experiment [1] was found to be 0.24 µM.

In the case of `COc1ccccc1Cc1ccc(-c2csc(N)n2)cc1`, the IC50 in experiment [5] was determined as 0.1 µM.

For `COc1cccc(Cc2ccc(-c3csc(N)n3)cc2)c1`, the AC50 in experiment [1] came to 5.92 µM.

Turning to `COc1ccc(Cc2ccccc2)cc1`, the K was found to be 0.18 µM in experiment [2] and 2.66 in experiment [4]. Also, in experiment [3], the fold change (FC) stood at 23.6. In experiment [1], the AC50 was 4.83 µM.

Regarding `CC(C)C[C@H](NC(=O)[C@@H](O)[C@H](N)Cc1ccccc1)C(=O)O`, in the experiment with Neutrophil, the inhibition entry was “Active”.

Regarding `Nc1nc(-c2ccc(Cc3ccc(C(F)(F)F)cc3)cc2)cs1`, the K in experiment [2] was determined as 9.6 µM; in experiment [4], 9.51. Further, in experiment [3], the fold change (FC) worked out at 21.4. In experiment [1], the AC50 turned out to be 1.39 µM.

With `Cc1ccccc1Cc1ccc(-c2csc(N)n2)cc1`, in experiment [1], the AC50 was found to be 6.62 µM.

For `Cc1ccc(Cc2ccc(-c3csc(N)n3)cc2)cc1`, the K turned out to be 0.1 µM in experiment [2] and 1.64 in experiment [4]. Also, the fold change (FC) in experiment [3] was found to be 18.7. The AC50 in experiment [1] is 0.083 µM.

For the molecule `Nc1nc(-c2ccc(Cc3ccccc3C(F)(F)F)cc2)cs1`, in experiment [5], the IC50 was 8.35 µM.

In the case of `Cc1cccc(Cc2ccc(-c3csc(N)n3)cc2)c1`, in experiment [1], the AC50 turned out to be 4.81 µM.

Values taken from ChEMBL document CHEMBL4414660, “Effect of Modifier Structure on the Activation of Leukotriene A4 Hydrolase Aminopeptidase Activity” (J Med Chem, 2019).
